Like-named read-outs stand apart in the source and are kept apart here.
Key:
LUHMES cells [1] = experiment: Intracellular ATP content after NeuriTox exposure; type: cell-based; conditions: Homo sapiens, 24 h
Summary of the method: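 LUHMES cells differentiated 48 h were re-seeded without cAMP/GDNF and exposed for 24 h starting 1 h after seeding; in the 120 h scenario, cells were dosed on d5 and d7 with read-out on d10. After imaging, intracellular ATP measured by CellTiterGlo 2.0 luminescence, background-corrected.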

proteasome = experiment: Proteasomal activity (KE3 assay) in LUHMES cells; type: cell-based, human; conditions: for Ratios of EC25 KE4/KE3 proteasomal: NeuriTox neurite EC25 relative to proteasomal activity EC25, LUHMES
Experimental: Activity of the proteasome was quantified as described in (Gutbier et al. [2018b]). Briefly, after exposure, culture medium was replaced by assay buffer containing a cell-permeable proteasomal substrate (MeOSuc-Gly-Leu-Phe-AMC, 25 µM (Bachem, Bubendorf, Switzerland) in HBSS). Its AMC-fluorescence (ex: 360 nm, em: 465 nm) increases with proteasomal activity and was monitored for 90 min. Background-corrected data were used for further analysis.

[2] = system: MRC complex (cI, cII or cIII); experiment: HepG2-based MRC complex assay in permeabilized cells (earlier study); type: cell-based; conditions: NeuriTox neurite EC25 relative to complex assay EC25 in permeabilized cells; respirometric data from HepG2-based assays ref van der Stel et al. 2020
HepG2 cells = experiment: HepG2-based respirometry, total cell respiration (earlier study); conditions: NeuriTox neurite EC25 relative to cell respiration EC25; respirometric data from HepG2-based assays ref van der Stel et al. 2020
LUHMES cells [3] = experiment: NeuriTox test: neurite area and viability, 24 h; type: cell-based, human; conditions: for EC25: Homo sapiens
Summary of the method: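 LUHMES cells differentiated 48 h were reseeded at 100,000 cells/cm^2 without cAMP/GDNF and treated 1 h later for 24 h; for 120 h exposure, treatment on d5 and d7 with endpoints on d10. Calcein-AM/Hoechst imaging gave viability (live/total cells) and neurite area (calcein area minus somatic area).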

U2OS cells = experiment: cells; type: cell-based; conditions: Homo sapiens, 24 h
Summary of the method: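 Cytotox CALUX U2OS cells, constitutively expressing luciferase, dosed with a compound dilution series 24 h after seeding and exposed 24 h. Luminescence after lysis reflects live-cell number; scaled between vehicle (100%) and 100 µM tributyltin acetate (0%).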

LUHMES cells [4] = type: cell-based, human
Experimental: Cells were cultured and treated as described above for the NeuriTox assay. On d3, after 24 h treatment, culture medium was replaced by 33 µl/well 1 × Biospyder lysis buffer. After 15 min at room temperature, plates were sealed and frozen at -80 °C to complete lysis. Samples were analyzed at Bioclavis (Glasgow) using the TempO-Seq technique and the EU-ToxRisk v2.0 gene probe panel covering ca. 3000 genes (Yeakley et al. [2017]). All genes are listed in the supplementary excel file (containing also all gene regulations). Briefly, a 50 bp fragment of the target gene was amplified. The amplification step also introduced sample-specific barcodes. This allowed pooling of all samples and standard next-generation sequencing of the ensemble. Afterward, adapters were used to allocate the sequenced fragments to the correct samples. Finally, the alignment of all sequenced fragments (FASTQ files) for each sample to the collection of reference 50 bp oligonucleotides was performed for the quantification of reads per gene, also known as the read count values. In a pre-filtering step, samples with a total count < 0.2 million and genes with an average count < 1.5 were removed.
To correct for both read depth and RNA composition, the DESeq2′s median of ratios normalization was applied. The analysis of differentially expressed genes (DEG) of each treatment against the control group was done by the Wald test implemented in DESeq2/R (Love et al. [2014]), including an FDR correction for p-adjusted ≤ 0.05. […] A curve was fit through these concentration–response data to obtain EC10DEG. For comparability, all DEG data were normalized to a positive control. […] The EC10DEG was calculated using an established online open access BMC calculator (BMCeasy) (Krebs et al. [2020]).

[5] = NeuriTox exposure scheme, read-out: LUHMES 24 h EC25 ATP (converted)
[6] = NeuriTox exposure scheme, 24 h, read-out: LUHMES 24 h EC25 NA (neurite area) (converted)
[7] = NeuriTox exposure scheme, 24 h, read-out: LUHMES 24 h EC25 V (viability) (converted)
[8] = NeuriTox test, neurite outgrowth impairment, LUHMES 24 h, read-out: EC25 KE4 (AO) Neurite toxicity (converted)
[9] = U2OS osteosarcoma cells, luminescence of constitutively expressed luciferase, read-out: Cytotox EC25 U2OS (converted)

CCOCCc1ccc(OCCN=c2[nH]cnc(CC)c2Cl)c(C)c1C [Pyrimidifen]
EC25 (LUHMES cells [1]; [5]): 20 µM | Ratios of EC25 KE4/KE3 proteasomal (proteasome): 1.1 | Ratios of EC25 KE4/KE1 complex assay [2]: 15850 | Ratios of EC25 KE4/KE1 total respiration (HepG2 cells): 1260 | EC25 (LUHMES cells [3]; [6]): 15.8 µM | EC25 (LUHMES cells [3]; [7]): 39.8 µM | EC25 (LUHMES cells [3]; [8]): 15.8 µM | EC25 (U2OS cells; [9]): 100 µM | log2FoldChange AARS (LUHMES cells [4]; gene AARS, 0.08 µM, 24 h, vs 0.1% DMSO): -0.45 log2 | log2FoldChange AASDHPPT (LUHMES cells [4]; gene AASDHPPT, 0.08 µM, 24 h, vs 0.1% DMSO): 0.72 log2 | log2FoldChange AATF (LUHMES cells [4]; gene AATF, 0.08 µM, 24 h, vs 0.1% DMSO): -0.0132 log2 | log2FoldChange ABCA1 (LUHMES cells [4]; gene ABCA1, 0.08 µM, 24 h, vs 0.1% DMSO): -1.62 log2 | log2FoldChange ABCA6 (LUHMES cells [4]; gene ABCA6, 0.08 µM, 24 h, vs 0.1% DMSO): 0.65 log2

C=C(C)[C@H]1Cc2c(ccc3c2O[C@@H]2COc4cc(OC)c(OC)cc4[C@@H]2C3=O)O1 [Rotenone]
EC25 (LUHMES cells [1]; read-out: LUHMES 24 h EC25 ATP): 5.01 µM | Potency on neurotoxicity (KE4/AO) relative to proteostasis (KE3) (proteasome; LUHMES): 100 times | Ratios of EC25 KE4/KE3 proteasomal (proteasome): 0.01 | Proteasomal function (in words) (proteasome; d2 LUHMES, 22 h incubation): reduced proteasome function at non-cytotoxic concentrations | Ratios of EC25 KE4/KE1 complex assay [2]: 7.9 | Ratios of EC25 KE4/KE1 total respiration (HepG2 cells): 1.3 | Offset between neurite endpoint (LUHMES/SH-SY5Y) and U2OS viability (LUHMES cells [3]): > 100 fold | EC25 (LUHMES cells [3]; 24 h, read-out: EC25 KE4 (AO) Neurite toxicity): 0.0794 µM | EC25 (LUHMES cells [3]; 24 h, read-out: LUHMES 24 h EC25 NA (neurite area)): 0.0794 µM | EC25 (LUHMES cells [3]; 24 h, read-out: LUHMES 24 h EC25 V (viability)): > 10 µM | EC25 (U2OS cells; U2OS, read-out: Cytotox EC25 U2OS): 31.6 µM | log2FoldChange AARS (LUHMES cells [4]): -0.41 log2 | log2FoldChange AASDHPPT (LUHMES cells [4]): 0.79 log2 | log2FoldChange AATF (LUHMES cells [4]): -0.42 log2 | log2FoldChange ABCA1 (LUHMES cells [4]): -0.98 log2 | log2FoldChange ABCA6 (LUHMES cells [4]): -0.24 log2

Cc1nc(C(F)(F)F)c(C(=O)Nc2c(Br)cc(OC(F)(F)F)cc2Br)s1 [Thifluzamide]
EC25 (LUHMES cells [1]; [5]): 20 µM | Ratios of EC25 KE4/KE3 proteasomal (proteasome): 1.1 | Ratios of EC25 KE4/KE1 complex assay [2]: 2.5 | Ratios of EC25 KE4/KE1 total respiration (HepG2 cells): < 2 | EC25 (LUHMES cells [3]; [6]): 20 µM | EC25 (LUHMES cells [3]; [7]): 63.1 µM | EC25 (LUHMES cells [3]; [8]): 20 µM | EC25 (U2OS cells; [9]): 20 µM | log2FoldChange AARS (LUHMES cells [4]; gene AARS, 0.15 µM, 24 h, vs 0.1% DMSO): -0.98 log2 | log2FoldChange AASDHPPT (LUHMES cells [4]; gene AASDHPPT, 0.15 µM, 24 h, vs 0.1% DMSO): 0.89 log2 | log2FoldChange AATF (LUHMES cells [4]; gene AATF, 0.15 µM, 24 h, vs 0.1% DMSO): -0.41 log2 | log2FoldChange ABCA1 (LUHMES cells [4]; gene ABCA1, 0.15 µM, 24 h, vs 0.1% DMSO): -0.76 log2 | log2FoldChange ABCA6 (LUHMES cells [4]; gene ABCA6, 0.15 µM, 24 h, vs 0.1% DMSO): 1.03 log2

Reference: paper PMC7870626, “Neurotoxicity and underlying cellular changes of 21 mitochondrial respiratory chain inhibitors” (Archives of Toxicology, 2021)
